pIC50: −log10 of the molar value. Where two headings read alike, the source gives them in different places.
Biological target: DCN1 (DCUND1) protein PONY domain (Homo sapiens (Human), UniProt Q96GG9)
Experiment: TR-FRET assay, DCN1 binding with FAM-labeled probe
Conditions: for IC50: TR FRET IC50 1 hr (nM)
Procedure: A TR-FRET assay was performed to evaluate the ability of the compounds to bind the DCN-1 protein.
The TR-FRET assay was designed following the Scott et al. protocol (Scott et al., Nat Chem Biol. 2017 August; 13(8): 850-857. Doi:10.1038/nchembio.2386). The recombinant form of the DCN1 (DCUND1) protein PONY domain was produced using an E. coli expression system at Viva Biotech (China). The DCN1 protein was biotinylated (EZ sulfo-NHS-LC-biotin; Thermofisher) for labeling with streptavidin terbium (Tb) cryptate in the reaction. The probe was changed to a non-covalent DCN1 inhibitor labeled with carboxyfluorescein (FAM; Zhou et al., Nat Commun. 2017; 8: 1150. Doi: 10.1038/s41467-017-01243-7). Buffer conditions were modified to enhance protein stability by exchanging Tween20 for TritonX and increasing NaCl to 200 mM. The compounds were screened against 5 nM DCN1 and 20 nM FAM-probe or 0.31 nM DCN1 and 900 nM total probe (100 nM FAM-labeled plus 800 nM unlabeled). The TR-FRET ratio between Tb-DCN1 and the FAM-labeled probe was measured in a 384-well opti-plate (Perkin Elmer) using a plate reader (BMG) at 1, 5, and 24 hrs after treatment with compound (final DMSO concentration of 0.1%).

[1] = 24 hr after treatment with compound, read-out: TR FRET IC50 24 hr
[2] = 1 hr after treatment with compound

DCN1 (DCUND1) protein PONY domain, sequence (Q96GG9 60-248): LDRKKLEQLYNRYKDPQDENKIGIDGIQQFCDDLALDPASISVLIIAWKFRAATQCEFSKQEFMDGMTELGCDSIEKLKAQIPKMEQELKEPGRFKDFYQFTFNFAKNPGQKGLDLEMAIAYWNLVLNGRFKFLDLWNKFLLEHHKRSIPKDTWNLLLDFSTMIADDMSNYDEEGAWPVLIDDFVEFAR

Row | Structure (SMILES) | pIC50 [1] | IC50 [2] | pIC50 (read-out: TR FRET IC50 1 hr, 1 hr after treatment with compound)
1 | CCN1C(=O)[C@@H](NC(=O)c2cccc(C(F)(F)F)c2)[C@@H](c2ccc(F)cc2)c2c(CNC(=O)C3=C(C(=O)OC)CCC3)nn(-c3ccccc3)c21 [Compound I-135] | 6.00 to 6.70 | 200 to 1000 nM | –
2 | CCN1C(=O)[C@@H](NC(=O)CCN2C(=O)COc3ccccc32)[C@@H](C2CC2)c2c(C(=O)N3[C@H](C#N)C[C@H]4C[C@H]43)nn(C3CCOCC3)c21 [Compound I-556] | 5.52 to 6.00 | 1000 to 3000 nM | –
3 | CCN1C(=O)[C@@H](NC(=O)c2cccc(C(F)(F)F)c2)[C@@H](c2ccc(F)cc2)c2c(CN(C#N)CCF)nn(-c3ccccc3)c21 (racemic) [Compound I-61] | 6.00 to 6.70 | 200 to 1000 nM | –
4 | CCN1C(=O)[C@@H](NC(=O)c2cccc(C(F)(F)F)c2)[C@@H](c2ccc(F)cc2)c2c(CC/C=C/C(N)=O)nn(-c3ccccc3)c21 [Compound I-124] | 6.00 to 6.70 | 200 to 1000 nM | –
5 | CCN1C(=O)[C@@H](NC(=O)c2cccc(C(F)(F)F)c2)[C@@H](c2ccc(F)cc2)c2c(CC/C=C\C(=O)NC)nn(-c3ccccc3)c21 (racemic) [Compound I-43] | 5.52 to 6.00 | 200 to 1000 nM | –
6 | C/C=C(\CN1CCOCC1)C(=O)NCc1nn(-c2ccccc2)c2c1[C@H](c1ccc(F)cc1)[C@H](NC(=O)c1cccc(C(F)(F)F)c1)C(=O)N2CC (racemic) [Compound I-14] | ≥ 6.70 | – | ≥ 6.70
7 | CCN1C(=O)[C@@H](NC(=O)c2ccc(C3CCN(C)CC3)cc2)[C@@H](C2CC2)c2c(C(=O)N3[C@H](C#N)C[C@H]4C[C@H]43)nn(C3CCOCC3)c21 [Compound I-653] | 5.52 to 6.00 | 1000 to 3000 nM | –
8 | CCN1C(=O)[C@@H](NC(=O)c2cnc(C(F)(F)F)s2)[C@@H](C2CC2)c2c(C(=O)N3[C@H](C#N)C[C@H]4C[C@H]43)nn(C3CCOCC3)c21 [Compound I-513] | 5.52 to 6.00 | 1000 to 3000 nM | –
9 | C=C(CC(=O)OC)C(=O)NCc1nn(-c2ccccc2)c2c1[C@H](c1ccc(F)cc1)[C@H](NC(=O)c1cccc(C(F)(F)F)c1)C(=O)N2CC (racemic) [Compound I-17] | 5.52 to 6.00 | 1000 to 3000 nM | –
10 | CCN1C(=O)[C@@H](NC(=O)CCc2cnn(C)c2)[C@@H](C2CC2)c2c(C(=O)N3[C@H](C#N)C[C@H]4C[C@H]43)nn(C3CCOCC3)c21 [Compound I-433] | 5.52 to 6.00 | 1000 to 3000 nM | –
11 | CCN1C(=O)[C@@H](NC(=O)CC#N)[C@@H](C2CC2)c2c(C(=O)N3[C@H](C#N)C[C@H]4C[C@H]43)nn(C3CCOCC3)c21 [Compound I-555] | 5.52 to 6.00 | 1000 to 3000 nM | –
12 | CCN1C(=O)[C@@H](NC(=O)c2cccc(C(F)(F)F)c2)[C@@H](c2ccc(F)cc2)c2c(NC(=O)C#CCN3CCOCC3)nn(-c3ccccc3)c21 (racemic) [Compound I-11, rac-N-((4R,5R)-7-ethyl-4-(4-fluorophenyl)-3-(4-morpholinobut-2-ynamido)-6-oxo-1-phenyl-4,5,6,7-tetrahydro-1H-pyrazolo[3,4-b]pyridine-5-yl)-3-(trifluoromethyl)benzamide] | ≥ 6.70 | 200 to 1000 nM | –
13 | C=C(Cc1nn(-c2ccccc2)c2c1[C@H](c1ccc(F)cc1)[C@H](NC(=O)c1cccc(C(F)(F)F)c1)C(=O)N2CC)C(=O)O (racemic) [Compound I-21, rac-2-(((4R,5R)-7-ethyl-4-(4-fluorophenyl)-6-oxo-1-phenyl-5-(3-(trifluoromethyl)benzamido)-4,5,6,7-tetrahydro-1H-pyrazolo[3,4-b]pyridin-3-yl)methyl)acrylic acid] | 5.52 to 6.00 | 1000 to 3000 nM | –
14 | CCN1C(=O)[C@@H](NC(=O)c2cccc(C(F)(F)F)c2)[C@@H](c2ccc(F)cc2)c2c(NC(=O)C(F)Cl)nn(-c3ccccc3)c21 (mixture of isomers) [Compound I-120] | 6.00 to 6.70 | 200 to 1000 nM | –
15 | CCN1C(=O)[C@@H](NC(=O)c2cccc(C(F)(F)F)c2)[C@@H](c2ccc(F)cc2)c2c(C(C)(C)N(C)C#N)nn(-c3ccccc3)c21 (racemic) [Compound I-42, rac-N-((4R,5R)-7-ethyl-4-(4-fluorophenyl)-3-(2-(N-methylcyanamido)propan-2-yl)-6-oxo-1-phenyl-4,5,6,7-tetrahydro-1H-pyrazolo[3,4-b]pyridin-5-yl)-3-(trifluoromethyl)benzamide] | 5.52 to 6.00 | 1000 to 3000 nM | –
16 | CCN1C(=O)[C@@H](NC(=O)c2cc(F)ccc2C(F)(F)F)[C@@H](C2CC2)c2c(C(=O)N3[C@H](C#N)C[C@H]4C[C@H]43)nn(C3CCOCC3)c21 [Compound I-623] | 5.52 to 6.00 | 1000 to 3000 nM | –
17 | CCN1C(=O)[C@@H](NC(=O)c2cccc(C(F)(F)F)c2)[C@@H](c2ccc(F)cc2)c2c(C(=O)N3CCC[C@@H]3C#N)nn(-c3ccccc3)c21 (mixture of isomers) [Compound I-94] | 6.00 to 6.70 | 200 to 1000 nM | –
18 | CCN1C(=O)[C@@H](NC(=O)c2cccc(C(F)(F)F)c2)[C@@H](c2ccc(F)cc2)c2c(CNC(=O)[C@H](C)C#N)nn(-c3ccccc3)c21 (relative stereo) [Compound I-85, N-((4RS,5RS)-3-(((S*)-2-cyanopropanamido)methyl)-7-ethyl-4-(4-fluorophenyl)-6-oxo-1-phenyl-4,5,6,7-tetrahydro-1H-pyrazolo[3,4-b]pyridin-5-yl)-3-(trifluoromethyl)benzamide] | 5.52 to 6.00 | 1000 to 3000 nM | –
19 | C=C(C(=O)OC(C)(C)C)[C@@H](O)c1nn(-c2ccccc2)c2c1[C@H](c1ccc(F)cc1)[C@H](NC(=O)c1cccc(C(F)(F)F)c1)C(=O)N2CC (racemic) [Compound I-146, rac-tert-butyl 2-(((4R,5R)-7-ethyl-4-(4-fluorophenyl)-6-oxo-1-phenyl-5-(3-(trifluoromethyl)benzamido)-4,5,6,7-tetrahydro-1H-pyrazolo[3,4-b]pyridin-3-yl)(hydroxy)methyl)acrylate] | 6.00 to 6.70 | 1000 to 3000 nM | –
20 | CCN1C(=O)[C@@H](NC(=O)c2cccc(C(F)(F)F)c2)[C@@H](c2ccc(F)cc2)c2c(CNCC#N)nn(-c3ccccc3)c21 (racemic) [Compound I-96, rac-N-((4R,5R)-3-(((cyanomethyl)amino)methyl)-7-ethyl-4-(4-fluorophenyl)-6-oxo-1-phenyl-4,5,6,7-tetrahydro-1H-pyrazolo[3,4-b]pyridine-5-yl)-3-(trifluoromethyl)benzamide] | 6.00 to 6.70 | 200 to 1000 nM | –
21 | CCN1C(=O)[C@@H](NC(=O)c2ccccc2)[C@@H](C2CC2)c2c(C(=O)N3[C@H](C#N)C[C@H]4C[C@H]43)nn(C3CCOCC3)c21 [Compound I-553] | ≥ 6.70 | 200 to 1000 nM | –
22 | CCN1C(=O)[C@@H](NC(=O)c2cccc(C(F)(F)F)c2)[C@@H](c2ccc(F)cc2)c2c(CNC(=O)C3(C#N)COC3)nn(-c3ccccc3)c21 (racemic) [Compound I-100, rac-3-cyano-N-(((4R,5R)-7-ethyl-4-(4-fluorophenyl)-6-oxo-1-phenyl-5-(3-(trifluoromethyl)benzamido)-4,5,6,7-tetrahydro-1H-pyrazolo[3,4-b]pyridine-3-yl)methyl)oxetane-3-carboxamide] | 6.00 to 6.70 | 200 to 1000 nM | –
23 | CCN1C(=O)[C@@H](NC(=O)c2nc3c(s2)CN(C)CC3)[C@@H](C2CC2)c2c(C(=O)N3[C@H](C#N)C[C@H]4C[C@H]43)nn(C3CCOCC3)c21 [Compound I-512] | 5.52 to 6.00 | 1000 to 3000 nM | –
24 | CCN1C(=O)[C@@H](NC(=O)c2cccc(C(F)(F)F)c2)[C@@H](c2ccc(F)cc2)c2c(C(C)(C)NC#N)nn(-c3ccccc3)c21 (racemic) [Compound I-144, rac-N-((4R,5R)-3-(2-cyanamidopropan-2-yl)-7-ethyl-4-(4-fluorophenyl)-6-oxo-1-phenyl-4,5,6,7-tetrahydro-1H-pyrazolo[3,4-b]pyridin-5-yl)-3-(trifluoromethyl)benzamide] | 6.00 to 6.70 | 1000 to 3000 nM | –
25 | CCN1C(=O)[C@@H](NC(=O)C2CCC(F)(F)CC2)[C@@H](C2CC2)c2c(C(=O)N3[C@H](C#N)C[C@H]4C[C@H]43)nn(C3CCOCC3)c21 [Compound I-652] | 5.52 to 6.00 | 1000 to 3000 nM | –
26 | CCN1C(=O)[C@@H](NC(=O)c2ccc(N3CCN(C)CC3)cn2)[C@@H](C2CC2)c2c(C(=O)N3[C@H](C#N)C[C@H]4C[C@H]43)nn(C3CCOCC3)c21 [Compound I-588] | 5.52 to 6.00 | 1000 to 3000 nM | –
27 | CCN1C(=O)[C@H](NC(=O)c2cccc(C(F)(F)F)c2)[C@H](c2ccc(F)cc2)c2c(CNC(=O)C3=CCN(C)C3)nn(-c3ccccc3)c21 (racemic) [Compound I-86, rac-N-(((4R,5R)-7-ethyl-4-(4-fluorophenyl)-6-oxo-1-phenyl-5-(3-(trifluoromethyl)benzamido)-4,5,6,7-tetrahydro-1H-pyrazolo[3,4-b]pyridin-3-yl)methyl)-1-methyl-2,5-dihydro-1H-pyrrole-3-carboxamide] | 6.00 to 6.70 | 200 to 1000 nM | –
28 | CCN1C(=O)[C@@H](NC(=O)c2cccc(C(F)(F)F)c2)[C@@H](c2ccc(F)cc2)c2c(C3(N(C)C#N)CC3)nn(-c3ccccc3)c21 (racemic) [Compound I-52] | 5.52 to 6.00 | 1000 to 3000 nM | –
29 | CCN1C(=O)[C@@H](NC(=O)Cc2ccc(C)cc2C)[C@@H](C2CC2)c2c(C(=O)N3[C@H](C#N)C[C@H]4C[C@H]43)nn(C3CCOCC3)c21 [Compound I-511] | 5.52 to 6.00 | 1000 to 3000 nM | –

From patent US20250163057A1, “DCN-1 MODULATING COMPOUNDS AND METHODS OF USE THEREOF” (Cellarity, Inc., priority 2023, published 2025)
